Laboratory results taken from paper PMC4291083, “Ex Vivo Characterization of a Novel Iodine-123-Labelled Aminomethylchroman as a Potential Agonist Ligand for SPECT Imaging of Dopamine D2/3 Receptors” (International Journal of Molecular Imaging, 2014).
Marks after values point to notes of the source that are not given here.

Experiment: Biodistribution studies in rats
Assay type: in vivo, Wistar rats
Settings: male rats
Protocol: [^123I]-1 (SA ≥ 37 MBq/nmol) was received after radiolabelling in an isotonic acetate (9% EtOH) buffer (pH 4.8). The solution was passed through a membrane filter (0.2 μm) and was diluted to the proper concentrations. Male Wistar rats (approximately 250 g body weight, obtained from Harlan/Charles River, Zeist, Netherlands) received an intravenous injection in the tail vein of approximately 3.7 MBq/0.4 mL buffer of [^123I]-1 under O2/CO2 anaesthesia. Distribution to the tissue was measured 15 min, 30 min, and 1, 2, 3, 4, and 24 h after the injection to determine the time course of uptake in several organs, including the brain. Four rats were killed at each time point via bleeding by heart puncture (to minimize contribution of blood activity) under O2/CO2 anaesthesia followed by cervical dislocation. Brain regions (cerebellum, frontal and prefrontal cortex, olfactory bulbs, pituitary, medulla with pons, midbrain, striatum, hypothalamus, hippocampus, and thalamus) and various peripheral tissues (heart, lung, liver, spleen, kidney, muscle, fat, and thymus) were quickly excised and weighted. The activity of [^123I] was assayed in a gamma counter, and data was corrected for decay and the amount of radioactivity was presented as percentage of the injected dose, multiplied by the body weight in kilograms, per gram tissue or blood. Selective uptake in the striatum was determined by calculating the ratio of radioactivity in the striatum in relation to that in the cerebellum, since the density of dopamine D2/3 receptor is negligible in this brain area in rats.

Oc1ccc2c(c1)O[C@@H](CNCc1ccc([123I])cc1)CC2 [[^123I]-1]
123I radioactivity, Fat (3 h after i.v. injection): 0.337 ± 0.065 %ID × kg/g | 123I radioactivity, Fat (4 h after i.v. injection): 0.174 ± 0.056 %ID × kg/g | 123I radioactivity, Fat (24 h after i.v. injection): 0.016 ± 0.005 %ID × kg/g | 123I radioactivity, Frontal cortex (15 min after i.v. injection): 2.567 ± 1.933 %ID × kg/g | 123I radioactivity, Frontal cortex (30 min after i.v. injection): 2.329 ± 0.904 %ID × kg/g | 123I radioactivity, Frontal cortex (1 h after i.v. injection): 0.722 ± 0.061 %ID × kg/g | 123I radioactivity, Frontal cortex (2 h after i.v. injection): 0.223 ± 0.028 %ID × kg/g | 123I radioactivity, Frontal cortex (3 h after i.v. injection): 0.232 ± 0.095 %ID × kg/g | 123I radioactivity, Frontal cortex (4 h after i.v. injection): 0.109 ± 0.057 %ID × kg/g | 123I radioactivity, Frontal cortex (24 h after i.v. injection): 0.024 ± 0.002 %ID × kg/g | 123I radioactivity, Hippocampus (15 min after i.v. injection): 0.826 ± 0.475 %ID × kg/g | 123I radioactivity, Hippocampus (30 min after i.v. injection): 2.155 ± 0.675 %ID × kg/g | 123I radioactivity, Hippocampus (1 h after i.v. injection): 0.866 ± 0.089 %ID × kg/g | 123I radioactivity, Hippocampus (2 h after i.v. injection): 0.255 ± 0.040 %ID × kg/g | 123I radioactivity, Hippocampus (3 h after i.v. injection): 0.230 ± 0.085 %ID × kg/g | 123I radioactivity, Hippocampus (4 h after i.v. injection): 0.093 ± 0.059 %ID × kg/g | 123I radioactivity, Hippocampus (24 h after i.v. injection): 0.014 ± 0.001 %ID × kg/g | 123I radioactivity, Hypothalamus (15 min after i.v. injection): 1.335 ± 0.766 %ID × kg/g | 123I radioactivity, Hypothalamus (30 min after i.v. injection): 1.699 ± 0.526 %ID × kg/g | 123I radioactivity, Hypothalamus (1 h after i.v. injection): 0.747 ± 0.111 %ID × kg/g | 123I radioactivity, Hypothalamus (2 h after i.v. injection): 0.218 ± 0.036 %ID × kg/g | 123I radioactivity, Hypothalamus (3 h after i.v. injection): 0.233 ± 0.070 %ID × kg/g | 123I radioactivity, Hypothalamus (4 h after i.v. injection): 0.114 ± 0.051 %ID × kg/g | 123I radioactivity, Hypothalamus (24 h after i.v. injection): 0.027 ± 0.005 %ID × kg/g | 123I radioactivity, Kidney (15 min after i.v. injection): 1.618 ± 0.774 %ID × kg/g | 123I radioactivity, Kidney (30 min after i.v. injection): 1.735 ± 0.353 %ID × kg/g | 123I radioactivity, Kidney (1 h after i.v. injection): 1.770 ± 0.302 %ID × kg/g | 123I radioactivity, Kidney (2 h after i.v. injection): 1.081 ± 0.154 %ID × kg/g | 123I radioactivity, Kidney (3 h after i.v. injection): 1.336 ± 0.175 %ID × kg/g | 123I radioactivity, Kidney (4 h after i.v. injection): 1.005 ± 0.397 %ID × kg/g | 123I radioactivity, Kidney (24 h after i.v. injection): 0.150 ± 0.026 %ID × kg/g | 123I radioactivity, Midbrain (15 min after i.v. injection): 3.566 ± 4.660 %ID × kg/g | 123I radioactivity, Midbrain (30 min after i.v. injection): 1.715 ± 0.577 %ID × kg/g | 123I radioactivity, Midbrain (1 h after i.v. injection): 0.754 ± 0.040 %ID × kg/g | 123I radioactivity, Midbrain (2 h after i.v. injection): 0.229 ± 0.046 %ID × kg/g | 123I radioactivity, Midbrain (3 h after i.v. injection): 0.214 ± 0.062 %ID × kg/g | 123I radioactivity, Midbrain (4 h after i.v. injection): 0.098 ± 0.059 %ID × kg/g | 123I radioactivity, Midbrain (24 h after i.v. injection): 0.020 ± 0.003 %ID × kg/g | 123I radioactivity, Muscle (15 min after i.v. injection): 0.412 ± 0.466 %ID × kg/g | 123I radioactivity, Muscle (30 min after i.v. injection): 0.363 ± 0.049 %ID × kg/g | 123I radioactivity, Olfactory b. (15 min after i.v. injection): 0.445 ± 0.439 %ID × kg/g | 123I radioactivity, Olfactory b. (30 min after i.v. injection): 1.325 ± 0.402 %ID × kg/g | 123I radioactivity, Olfactory b. (1 h after i.v. injection): 0.631 ± 0.036 %ID × kg/g | 123I radioactivity, Olfactory b. (2 h after i.v. injection): 0.218 ± 0.025 %ID × kg/g | 123I radioactivity, Olfactory b. (3 h after i.v. injection): 0.234 ± 0.087 %ID × kg/g | 123I radioactivity, Olfactory b. (4 h after i.v. injection): 0.112 ± 0.043 %ID × kg/g | 123I radioactivity, Olfactory b. (24 h after i.v. injection): 0.020 ± 0.001 %ID × kg/g | 123I radioactivity, Pituitary (15 min after i.v. injection, only 1 sample): 1.401^* %ID × kg/g | 123I radioactivity, Pituitary (30 min after i.v. injection): 3.367 ± 1.033 %ID × kg/g | 123I radioactivity, Pituitary (1 h after i.v. injection): 1.561 ± 0.538 %ID × kg/g | 123I radioactivity, Pituitary (2 h after i.v. injection): 0.918 ± 0.632 %ID × kg/g | 123I radioactivity, Pituitary (3 h after i.v. injection): 0.548 ± 0.149 %ID × kg/g | 123I radioactivity, Pituitary (4 h after i.v. injection): 0.307 ± 0.056 %ID × kg/g | 123I radioactivity, Pituitary (24 h after i.v. injection): 0.082 ± 0.006 %ID × kg/g | 123I radioactivity, Pons/medulla (15 min after i.v. injection): 1.188 ± 0.587 %ID × kg/g | 123I radioactivity, Pons/medulla (30 min after i.v. injection): 1.486 ± 0.274 %ID × kg/g | 123I radioactivity, Pons/medulla (1 h after i.v. injection): 0.761 ± 0.040 %ID × kg/g | 123I radioactivity, Pons/medulla (2 h after i.v. injection): 0.237 ± 0.045 %ID × kg/g | 123I radioactivity, Pons/medulla (3 h after i.v. injection): 0.229 ± 0.066 %ID × kg/g | 123I radioactivity, Pons/medulla (4 h after i.v. injection): 0.106 ± 0.057 %ID × kg/g | 123I radioactivity, Pons/medulla (24 h after i.v. injection): 0.017 ± 0.001 %ID × kg/g | 123I radioactivity, Spleen (15 min after i.v. injection): 2.428 ± 1.971 %ID × kg/g | 123I radioactivity, Spleen (30 min after i.v. injection): 1.270 ± 0.282 %ID × kg/g | 123I radioactivity, Spleen (1 h after i.v. injection): 0.749 ± 0.093 %ID × kg/g | 123I radioactivity, Spleen (2 h after i.v. injection): 0.266 ± 0.047 %ID × kg/g | 123I radioactivity, Spleen (3 h after i.v. injection): 0.284 ± 0.092 %ID × kg/g | 123I radioactivity, Spleen (4 h after i.v. injection): 0.166 ± 0.087 %ID × kg/g | 123I radioactivity, Spleen (24 h after i.v. injection): 0.022 ± 0.003 %ID × kg/g | 123I radioactivity, Striatum (15 min after i.v. injection): 1.231 ± 1.299 %ID × kg/g | 123I radioactivity, Striatum (30 min after i.v. injection): 1.947 ± 0.666 %ID × kg/g | 123I radioactivity, Striatum (1 h after i.v. injection): 0.779 ± 0.037 %ID × kg/g | 123I radioactivity, Striatum (2 h after i.v. injection): 0.226 ± 0.034 %ID × kg/g | 123I radioactivity, Striatum (3 h after i.v. injection): 0.232 ± 0.065 %ID × kg/g | 123I radioactivity, Striatum (4 h after i.v. injection): 0.101 ± 0.051 %ID × kg/g | 123I radioactivity, Striatum (24 h after i.v. injection): 0.027 ± 0.010 %ID × kg/g | 123I radioactivity, Thalamus (15 min after i.v. injection): 1.556 ± 1.015 %ID × kg/g | 123I radioactivity, Thalamus (30 min after i.v. injection): 1.978 ± 0.618 %ID × kg/g | 123I radioactivity, Thalamus (1 h after i.v. injection): 0.779 ± 0.049 %ID × kg/g | 123I radioactivity, Thalamus (2 h after i.v. injection): 0.234 ± 0.037 %ID × kg/g | 123I radioactivity, Thalamus (3 h after i.v. injection): 0.279 ± 0.091 %ID × kg/g | 123I radioactivity, Thalamus (4 h after i.v. injection): 0.114 ± 0.047 %ID × kg/g | 123I radioactivity, Thalamus (24 h after i.v. injection): 0.033 ± 0.006 %ID × kg/g
